{"source": "the supplement of paper PMC6045584", "key": {"[1]": {"compound": "Cn1cc(C2=Nc3cc(NC(=O)C(N)C4CCCCC4)cc4c3C2=CNNC4=O)cn1", "assay": "area under dose-response curve of surviving fraction (unscaled, Aref=0) (surviving fraction x log10(nM)); higher = more resistant", "details": "exposure time: 5 days; dose range 0.5-1000 nM", "how_it_was_run": "(§1)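 Each tumour cell line was screened three times in 384-well plates, receiving eight inhibitor concentrations from 0.5 to 1000 nM for five days. CellTiter-Glo luminescence gave viability, normalised to DMSO-only wells. Using the drc R package, surviving fractions were fitted with 3-parameter logistic dose-response curves, and the unscaled activity area over log10 dose (Aref = 0) was taken as the area under the curve.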"}, "[2]": {"compound": "T1, CN(C)C/C=C/C(=O)Nc1cc2c(Nc3ccc(F)c(Cl)c3)ncnc2cc1O[C@H]1CCOC1 [AFATINIB]", "assay": "area under dose-response curve of surviving fraction (unscaled, Aref=0) (surviving fraction x log10(nM)); higher = more resistant", "details": "exposure time: 5 days; dose range 0.5-1000 nM", "how_it_was_run": "as §1"}, "[3]": {"compound": "T2, Nc1nc2[nH]cnc2c(=S)[nH]1 [TIOGUANINE]", "assay": "area under dose-response curve of surviving fraction (unscaled, Aref=0) (surviving fraction x log10(nM)); higher = more resistant", "details": "exposure time: 5 days; dose range 0.5-1000 nM", "how_it_was_run": "as §1"}, "[4]": {"compound": "T3, C=CC(=O)Nc1cc2c(Nc3ccc(F)c(Cl)c3)ncnc2cc1OCCCN1CCOCC1 [CANERTINIB]", "assay": "area under dose-response curve of surviving fraction (unscaled, Aref=0) (surviving fraction x log10(nM)); higher = more resistant", "details": "exposure time: 5 days; dose range 0.5-1000 nM", "how_it_was_run": "as §1"}, "[5]": {"compound": "T4, CC1(C)CC(=O)c2c(C(F)(F)F)nn(-c3ccc(C(N)=O)c(N[C@H]4CC[C@H](OC(=O)CN)CC4)c3)c2C1 [SNX-5422]", "assay": "area under dose-response curve of surviving fraction (unscaled, Aref=0) (surviving fraction x log10(nM)); higher = more resistant", "details": "exposure time: 5 days; dose range 0.5-1000 nM", "how_it_was_run": "as §1"}, "[6]": {"compound": "T5, CCCCCCCCCCCCCCCC(=O)Nc1ccn([C@@H]2O[C@H](CO)[C@@H](O)[C@@H]2C#N)c(=O)n1 [SAPACITABINE]", "assay": "area under dose-response curve of surviving fraction (unscaled, Aref=0) (surviving fraction x log10(nM)); higher = more resistant", "details": "exposure time: 5 days; dose range 0.5-1000 nM", "how_it_was_run": "as §1"}, "[7]": {"compound": "T6, CC[C@@H]1C(=O)N(C)c2cnc(Nc3ccc(C(=O)NC4CCN(C)CC4)cc3OC)nc2N1C1CCCC1 [BI-2536]", "assay": "area under dose-response curve of surviving fraction (unscaled, Aref=0) (surviving fraction x log10(nM)); higher = more resistant", "details": "exposure time: 5 days; dose range 0.5-1000 nM", "how_it_was_run": "as §1"}, "[8]": {"compound": "T7, CNC(=O)c1ccc(N2C(=S)N(c3ccc(C#N)c(C(F)(F)F)c3)C(=O)C2(C)C)cc1F [MDV3100]", "assay": "area under dose-response curve of surviving fraction (unscaled, Aref=0) (surviving fraction x log10(nM)); higher = more resistant", "details": "exposure time: 5 days; dose range 0.5-1000 nM", "how_it_was_run": "as §1"}, "[9]": {"compound": "Cn1cc(C2=Nc3cc(NC(=O)C(N)C4CCCCC4)cc4c3C2=CNNC4=O)cn1", "assay": "surviving fraction relative to DMSO-only wells; higher = less growth inhibition", "details": "exposure time: 5 days", "how_it_was_run": "(§2)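 At 250–500 cells per well in 384-well plates, log-phase tumour cell lines were seeded and, 24 hours on, exposed continuously for five days to inhibitors at 0.5, 1, 5, 10, 50, 100, 500 and 1000 nM. Viability readout was CellTiter-Glo luminescence, reported as surviving fraction normalised to the median of DMSO-only wells.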"}, "[10]": {"compound": "T1, AFATINIB", "assay": "surviving fraction relative to DMSO-only wells; higher = less growth inhibition", "details": "exposure time: 5 days", "how_it_was_run": "as §2"}, "[11]": {"compound": "T2, TIOGUANINE", "assay": "surviving fraction relative to DMSO-only wells; higher = less growth inhibition", "details": "exposure time: 5 days", "how_it_was_run": "as §2"}, "[12]": {"compound": "T3, CANERTINIB", "assay": "surviving fraction relative to DMSO-only wells; higher = less growth inhibition", "details": "exposure time: 5 days", "how_it_was_run": "as §2"}, "[13]": {"compound": "T4, SNX-5422", "assay": "surviving fraction relative to DMSO-only wells; higher = less growth inhibition", "details": "exposure time: 5 days", "how_it_was_run": "as §2"}, "[14]": {"compound": "T5, SAPACITABINE", "assay": "surviving fraction relative to DMSO-only wells; higher = less growth inhibition", "details": "exposure time: 5 days", "how_it_was_run": "as §2"}, "[15]": {"compound": "T6, BI-2536", "assay": "surviving fraction relative to DMSO-only wells; higher = less growth inhibition", "details": "exposure time: 5 days", "how_it_was_run": "as §2"}, "[16]": {"compound": "T7, MDV3100", "assay": "surviving fraction relative to DMSO-only wells; higher = less growth inhibition", "details": "exposure time: 5 days", "how_it_was_run": "as §2"}}, "note": "± gives the standard deviation of the averaged measurements.", "data": [{"test system": "KPD BONE", "values": [{"measurement": "area under dose-response curve", "setting": "[1]", "result": 2.3}, {"measurement": "area under dose-response curve", "setting": "[2]", "result": 3.02}, {"measurement": "area under dose-response curve", "setting": "[3]", "result": 3.35}, {"measurement": "area under dose-response curve", "setting": "[4]", "result": 3.06}, {"measurement": "area under dose-response curve", "setting": "[5]", "result": 1.89}, {"measurement": "area under dose-response curve", "setting": "[6]", "result": 2.81}, {"measurement": "area under dose-response curve", "setting": "[7]", "result": 1.5}, {"measurement": "area under dose-response curve", "setting": "[8]", "result": 3.28}, {"measurement": "surviving fraction", "setting": "[9]; 0.5 nM", "result": "0.953 ± 0.041"}, {"measurement": "surviving fraction", "setting": "[9]; 1 nM", "result": "0.891 ± 0.018"}, {"measurement": "surviving fraction", "setting": "[9]; 5 nM", "result": "1.19 ± 0.24"}, {"measurement": "surviving fraction", "setting": "[9]; 10 nM", "result": "0.977 ± 0.026"}, {"measurement": "surviving fraction", "setting": "[9]; 50 nM", "result": "0.84 ± 0.028"}, {"measurement": "surviving fraction", "setting": "[9]; 100 nM", "result": "0.389 ± 0.021"}, {"measurement": "surviving fraction", "setting": "[9]; 500 nM", "result": "0.0873 ± 0.0023"}, {"measurement": "surviving fraction", "setting": "[9]; 1000 nM", "result": "0.0763 ± 0.008"}, {"measurement": "surviving fraction", "setting": "[10]; 0.5 nM", "result": "0.964 ± 0.051"}, {"measurement": "surviving fraction", "setting": "[10]; 1 nM", "result": "0.978 ± 0.045"}, {"measurement": "surviving fraction", "setting": "[10]; 5 nM", "result": "1.04 ± 0.066"}, {"measurement": "surviving fraction", "setting": "[10]; 10 nM", "result": "0.976 ± 0.051"}, {"measurement": "surviving fraction", "setting": "[10]; 50 nM", "result": "1.08 ± 0.06"}, {"measurement": "surviving fraction", "setting": "[10]; 100 nM", "result": "0.888 ± 0.034"}, {"measurement": "surviving fraction", "setting": "[10]; 500 nM", "result": "0.65 ± 0.056"}, {"measurement": "surviving fraction", "setting": "[10]; 1000 nM", "result": "0.354 ± 0.014"}, {"measurement": "surviving fraction", "setting": "[11]; 0.5 nM", "result": "0.998 ± 0.045"}, {"measurement": "surviving fraction", "setting": "[11]; 1 nM", "result": "0.985 ± 0.098"}, {"measurement": "surviving fraction", "setting": "[11]; 5 nM", "result": "0.989 ± 0.049"}, {"measurement": "surviving fraction", "setting": "[11]; 10 nM", "result": "1 ± 0.047"}, {"measurement": "surviving fraction", "setting": "[11]; 50 nM", "result": "1.03 ± 0.084"}, {"measurement": "surviving fraction", "setting": "[11]; 100 nM", "result": "1.05 ± 0.027"}, {"measurement": "surviving fraction", "setting": "[11]; 500 nM", "result": "1.03 ± 0.019"}, {"measurement": "surviving fraction", "setting": "[11]; 1000 nM", "result": "0.993 ± 0.059"}, {"measurement": "surviving fraction", "setting": "[12]; 0.5 nM", "result": "0.943 ± 0.043"}, {"measurement": "surviving fraction", "setting": "[12]; 1 nM", "result": "0.947 ± 0.076"}, {"measurement": "surviving fraction", "setting": "[12]; 5 nM", "result": "0.962 ± 0.026"}, {"measurement": "surviving fraction", "setting": "[12]; 10 nM", "result": "0.929 ± 0.023"}, {"measurement": "surviving fraction", "setting": "[12]; 50 nM", "result": "0.917 ± 0.068"}, {"measurement": "surviving fraction", "setting": "[12]; 100 nM", "result": "0.922 ± 0.04"}, {"measurement": "surviving fraction", "setting": "[12]; 500 nM", "result": "0.776 ± 0.048"}, {"measurement": "surviving fraction", "setting": "[12]; 1000 nM", "result": "0.497 ± 0.047"}, {"measurement": "surviving fraction", "setting": "[13]; 0.5 nM", "result": "1 ± 0.015"}, {"measurement": "surviving fraction", "setting": "[13]; 1 nM", "result": "1.03 ± 0.07"}, {"measurement": "surviving fraction", "setting": "[13]; 5 nM", "result": "1.02 ± 0.054"}, {"measurement": "surviving fraction", "setting": "[13]; 10 nM", "result": "0.954 ± 0.026"}, {"measurement": "surviving fraction", "setting": "[13]; 50 nM", "result": "0.265 ± 0.0056"}, {"measurement": "surviving fraction", "setting": "[13]; 100 nM", "result": "0.109 ± 0.004"}, {"measurement": "surviving fraction", "setting": "[13]; 500 nM", "result": "0.0673 ± 0.0015"}, {"measurement": "surviving fraction", "setting": "[13]; 1000 nM", "result": "0.0643 ± 0.0067"}, {"measurement": "surviving fraction", "setting": "[14]; 0.5 nM", "result": "0.887 ± 0.013"}, {"measurement": "surviving fraction", "setting": "[14]; 1 nM", "result": "0.886 ± 0.043"}, {"measurement": "surviving fraction", "setting": "[14]; 5 nM", "result": "0.977 ± 0.045"}, {"measurement": "surviving fraction", "setting": "[14]; 10 nM", "result": "0.946 ± 0.1"}, {"measurement": "surviving fraction", "setting": "[14]; 50 nM", "result": "0.926 ± 0.024"}, {"measurement": "surviving fraction", "setting": "[14]; 100 nM", "result": "0.815 ± 0.013"}, {"measurement": "surviving fraction", "setting": "[14]; 500 nM", "result": "0.52 ± 0.028"}, {"measurement": "surviving fraction", "setting": "[14]; 1000 nM", "result": "0.344 ± 0.017"}, {"measurement": "surviving fraction", "setting": "[15]; 0.5 nM", "result": "0.919 ± 0.06"}, {"measurement": "surviving fraction", "setting": "[15]; 1 nM", "result": "0.925 ± 0.022"}, {"measurement": "surviving fraction", "setting": "[15]; 5 nM", "result": "0.79 ± 0.024"}, {"measurement": "surviving fraction", "setting": "[15]; 10 nM", "result": "0.482 ± 0.016"}, {"measurement": "surviving fraction", "setting": "[15]; 50 nM", "result": "0.205 ± 0.012"}, {"measurement": "surviving fraction", "setting": "[15]; 100 nM", "result": "0.197 ± 0.011"}, {"measurement": "surviving fraction", "setting": "[15]; 500 nM", "result": "0.113 ± 0.0035"}, {"measurement": "surviving fraction", "setting": "[15]; 1000 nM", "result": "0.0597 ± 0.0038"}, {"measurement": "surviving fraction", "setting": "[16]; 0.5 nM", "result": "0.955 ± 0.071"}, {"measurement": "surviving fraction", "setting": "[16]; 1 nM", "result": "0.975 ± 0.023"}, {"measurement": "surviving fraction", "setting": "[16]; 5 nM", "result": "0.997 ± 0.048"}, {"measurement": "surviving fraction", "setting": "[16]; 10 nM", "result": "0.985 ± 0.044"}, {"measurement": "surviving fraction", "setting": "[16]; 50 nM", "result": "1.04 ± 0.058"}, {"measurement": "surviving fraction", "setting": "[16]; 100 nM", "result": "1.04 ± 0.067"}, {"measurement": "surviving fraction", "setting": "[16]; 500 nM", "result": "0.977 ± 0.19"}, {"measurement": "surviving fraction", "setting": "[16]; 1000 nM", "result": "0.938 ± 0.015"}]}]}
